Results reported in ChEMBL document CHEMBL1149422, “Expedited SAR study of high-affinity ligands to the alpha(2)delta subunit of voltage-gated calcium channels: Generation of a focused library using a solution-phase Sn2Ar coupling methodology” (Bioorg Med Chem Lett, 2006).

biological target: Voltage-dependent calcium channel subunit alpha-2/delta-1 (Homo sapiens, UniProt P54289); assay: [3H]Gabapentin binding in human A710 membrane expressing alpha-2delta subunit of calcium channel; type: cell membranes
Sequence (P54289 25-956 limits assumed): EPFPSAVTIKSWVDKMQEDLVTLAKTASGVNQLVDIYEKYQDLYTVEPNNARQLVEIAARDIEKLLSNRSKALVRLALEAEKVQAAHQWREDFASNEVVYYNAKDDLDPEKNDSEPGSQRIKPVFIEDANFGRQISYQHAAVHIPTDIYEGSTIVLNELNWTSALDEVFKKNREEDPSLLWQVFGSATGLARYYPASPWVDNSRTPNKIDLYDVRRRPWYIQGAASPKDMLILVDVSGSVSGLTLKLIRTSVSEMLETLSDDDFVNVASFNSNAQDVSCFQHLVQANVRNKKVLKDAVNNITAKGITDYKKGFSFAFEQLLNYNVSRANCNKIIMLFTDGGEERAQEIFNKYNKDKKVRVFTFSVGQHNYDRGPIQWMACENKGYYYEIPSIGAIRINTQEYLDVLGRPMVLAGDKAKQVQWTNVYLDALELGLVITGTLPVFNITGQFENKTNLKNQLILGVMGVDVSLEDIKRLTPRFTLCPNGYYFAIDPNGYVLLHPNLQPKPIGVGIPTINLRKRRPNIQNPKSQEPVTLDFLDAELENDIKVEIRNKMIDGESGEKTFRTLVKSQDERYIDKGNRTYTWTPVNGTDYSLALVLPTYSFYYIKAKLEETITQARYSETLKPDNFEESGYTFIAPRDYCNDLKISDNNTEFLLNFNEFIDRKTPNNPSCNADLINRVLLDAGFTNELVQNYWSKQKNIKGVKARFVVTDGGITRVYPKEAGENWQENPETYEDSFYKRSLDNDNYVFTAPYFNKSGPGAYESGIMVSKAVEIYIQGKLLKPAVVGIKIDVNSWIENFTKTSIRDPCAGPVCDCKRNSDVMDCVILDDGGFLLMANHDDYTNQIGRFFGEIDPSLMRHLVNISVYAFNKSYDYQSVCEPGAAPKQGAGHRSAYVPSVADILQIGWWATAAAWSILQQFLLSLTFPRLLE
Sequence (P54289 957-1103 limits assumed): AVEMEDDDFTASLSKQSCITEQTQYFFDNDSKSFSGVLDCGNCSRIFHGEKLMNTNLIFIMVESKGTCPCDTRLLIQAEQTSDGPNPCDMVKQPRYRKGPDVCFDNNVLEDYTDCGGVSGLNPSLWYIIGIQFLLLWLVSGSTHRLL

Structure (SMILES) | IC50 [nM]
CCOc1ccc(-n2c(C)c3c(C)nnc(Nc4ccc5c(c4)CCC5)c3c2C)cc1 | 199
CCOc1ccc(-n2c(C)c3c(C)nnc(Nc4ccc5[nH]nnc5c4)c3c2C)cc1 | 346
CCOc1ccc(-n2c(C)c3c(C)nnc(Nc4ccc5[nH]ncc5c4)c3c2C)cc1 | 36
CCOc1ccc(-n2c(C)c3c(C)nnc(Nc4ccc5[nH]ccc5c4)c3c2C)cc1 | 30
CCOc1ccc(-n2c(C)c3c(C)nnc(N4CCC5=C(C4)NC4C=CC=CC54)c3c2C)cc1 (stereo not drawn) | 135
CCOc1ccc(-n2c(C)c3c(C)nnc(N4CC(C)CC(C)C4)c3c2C)cc1 (stereo not drawn) | 702
CCOc1ccc(-n2c(C)c3c(C)nnc(NCc4cccc5[nH]ccc45)c3c2C)cc1 | 70
CCOc1ccc(-n2c(C)c3c(C)nnc(N4CCC(NC(C)=O)C4)c3c2C)cc1 (stereo not drawn) | 144
CCOc1ccc(-n2c(C)c3c(C)nnc(N4CCOCC4)c3c2C)cc1 | 1690
CCOc1ccc(-n2c(C)c3c(C)nnc(N4CCN(C)CC4)c3c2C)cc1 | 2930
CCOc1ccc(-n2c(C)c3c(C)nnc(Nc4ccc5c(c4)OCO5)c3c2C)cc1 | 207
CCOc1ccc(-n2c(C)c3c(C)nnc(N4CCC(c5ccccc5)(c5ccccc5)C4)c3c2C)cc1 | 153
CCOc1ccc(-n2c(C)c3c(C)nnc(NCc4cccc5cccnc45)c3c2C)cc1 | 63
CCOc1ccc(-n2c(C)c3c(C)nnc(NCc4ccc5c(n4)NCCC5)c3c2C)cc1 | 32
CCOc1ccc(-n2c(C)c3c(C)nnc(NC4CCc5ccccc54)c3c2C)cc1 (stereo not drawn) | 54
CCOc1ccc(-n2c(C)c3c(C)nnc(N4CC(C)OC(C)C4)c3c2C)cc1 (stereo not drawn) | > 3000
CCOc1ccc(-n2c(C)c3c(C)nnc(N4C[C@@H]5CCc6ccccc6[C@@H]5C4)c3c2C)cc1 | 84
CCOc1ccc(-n2c(C)c3c(C)nnc(N4CCC(C)CC4)c3c2C)cc1 | 370
CCOc1ccc(-n2c(C)c3c(C)nnc(NC4CCCc5ccccc54)c3c2C)cc1 (stereo not drawn) | 161

Further lines, results first:

IC50 [nM] | Structure (SMILES)
84 | CCOc1ccc(-n2c(C)c3c(C)nnc(NCC(C)CC)c3c2C)cc1 (stereo not drawn)
296 | CCOc1ccc(-n2c(C)c3c(C)nnc(NC(C)CC(C)C)c3c2C)cc1 (stereo not drawn)
94 | CCOc1ccc(-n2c(C)c3c(C)nnc(NCc4ccc(F)cc4)c3c2C)cc1
239 | CCOc1ccc(-n2c(C)c3c(C)nnc(NCc4cccc(OC)c4)c3c2C)cc1
67 | CCOc1ccc(-n2c(C)c3c(C)nnc(NC(C)C)c3c2C)cc1
61 | CCCCNc1nnc(C)c2c(C)n(-c3ccc(OCC)cc3)c(C)c12
702 | CCOc1ccc(-n2c(C)c3c(C)nnc(NCc4ccc(OC)cc4)c3c2C)cc1
180 | CCOc1ccc(-n2c(C)c3c(C)nnc(N4CCCC4)c3c2C)cc1
119 | CCOc1ccc(-n2c(C)c3c(C)nnc(NCc4cccnc4)c3c2C)cc1
64 | CCOc1ccc(-n2c(C)c3c(C)nnc(NCc4cnn(CC)c4)c3c2C)cc1
65 | CCOc1ccc(-n2c(C)c3c(C)nnc(NCc4ccc(Cl)cc4)c3c2C)cc1
50 | CCOc1ccc(-n2c(C)c3c(C)nnc(NCC4CCCO4)c3c2C)cc1 (stereo not drawn)
68 | CCOc1ccc(-n2c(C)c3c(C)nnc(NCc4n[nH]cc4C4CC4)c3c2C)cc1
37 | CCOc1ccc(-n2c(C)c3c(C)nnc(NCc4cccc(Cl)c4)c3c2C)cc1
76 | CCOc1ccc(-n2c(C)c3c(C)nnc(NCc4ccccc4OC)c3c2C)cc1
> 3000 | CCOc1ccc(-n2c(C)c3c(C)nnc(NCc4ccccn4)c3c2C)cc1
18 | CCOc1ccc(-n2c(C)c3c(C)nnc(NCc4cccc(F)c4)c3c2C)cc1
69 | CCOc1ccc(-n2c(C)c3c(C)nnc(NCc4cnn(C)c4)c3c2C)cc1
84 | CCOc1ccc(-n2c(C)c3c(C)nnc(NCc4ccncc4)c3c2C)cc1
